Laboratory results taken from PMC2943919, “Green Tea Catechin, Epigallocatechin Gallate, Suppresses Signaling by the dsRNA Innate Immune Receptor RIG-I” (PLoS ONE, 2010).

What was measured:
[1] = target: T1, RIG-I (Retinoic acid-inducible gene I) (Homo sapiens, UniProt O95786); experiment: RNA-dependent ATPase assay (ADP-Glo) with recombinant RIG-I; supported by native gel mobility shift; type: biochemical; design: gene RIGI; recombinant full length RIG-I
T1 sequence (O95786 1-925): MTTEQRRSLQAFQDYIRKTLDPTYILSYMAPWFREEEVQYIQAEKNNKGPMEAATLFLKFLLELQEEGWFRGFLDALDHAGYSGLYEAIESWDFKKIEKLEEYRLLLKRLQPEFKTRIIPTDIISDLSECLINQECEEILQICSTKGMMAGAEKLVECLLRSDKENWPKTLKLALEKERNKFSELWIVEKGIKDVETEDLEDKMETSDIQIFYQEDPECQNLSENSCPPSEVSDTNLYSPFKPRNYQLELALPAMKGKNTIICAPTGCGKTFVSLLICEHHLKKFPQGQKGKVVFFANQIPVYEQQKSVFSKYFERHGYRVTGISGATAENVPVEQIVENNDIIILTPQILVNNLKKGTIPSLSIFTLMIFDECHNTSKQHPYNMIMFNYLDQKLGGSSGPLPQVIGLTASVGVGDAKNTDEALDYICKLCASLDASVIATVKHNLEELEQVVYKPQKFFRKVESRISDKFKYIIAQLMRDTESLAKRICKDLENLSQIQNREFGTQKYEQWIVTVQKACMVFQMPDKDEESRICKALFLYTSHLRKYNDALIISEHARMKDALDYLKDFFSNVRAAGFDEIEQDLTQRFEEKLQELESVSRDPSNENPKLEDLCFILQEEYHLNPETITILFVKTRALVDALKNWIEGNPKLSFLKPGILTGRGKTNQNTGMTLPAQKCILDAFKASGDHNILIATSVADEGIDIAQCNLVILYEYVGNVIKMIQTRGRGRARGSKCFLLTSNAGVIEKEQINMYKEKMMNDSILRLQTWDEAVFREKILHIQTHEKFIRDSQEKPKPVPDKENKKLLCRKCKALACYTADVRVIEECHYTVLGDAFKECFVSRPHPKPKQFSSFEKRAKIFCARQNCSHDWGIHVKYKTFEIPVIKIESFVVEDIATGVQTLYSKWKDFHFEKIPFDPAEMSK

[2] = target: T1, RIG-I (Retinoic acid-inducible gene I); experiment: RNA-dependent ATPase assay (ADP-Glo) at […]; type: biochemical; design: gene RIGI; recombinant RIG-I

| IC50 [1] [nM] | Compound | RNA-dependent ATPase assay (ADP-Glo) at 0.5 and 1 μM [2] |
| --- | --- | --- |
| < 500 | O=C(O[C@@H]1Cc2c(O)cc(O)cc2O[C@@H]1c1cc(O)c(O)c(O)c1)c1cc(O)c(O)c(O)c1 [EGCG, Epigallocatechin gallate] |  |
|  | O=C(O[C@@H]1Cc2c(O)cc(O)cc2O[C@H]1c1cc(O)c(O)c(O)c1)c1cc(O)c(O)c(O)c1 [GCG, gallocatechin gallate] | GCG, ECG, CG and TFDG inhibited the shR9-induced RIG-I ATPase activity to similar degree as EGCG |
|  | O=C(O[C@@H]1Cc2c(O)cc(O)cc2O[C@@H]1c1ccc(O)c(O)c1)c1cc(O)c(O)c(O)c1 [ECG, epicatechin gallate] | GCG, ECG, CG and TFDG inhibited the shR9-induced RIG-I ATPase activity to similar degree as EGCG |
